According to paper PMC12621045, “Development of Purine and Pyrrolopyrimidine Scaffolds as Potent, Selective, and Brain Penetrant NUAK1 Inhibitors” (ACS Medicinal Chemistry Letters, 2025):

Experiments:
Experiment in all cases: 33P-ATP radiometric filter binding kinase panel
Src = Src (Homo sapiens, UniProt P12931); conditions: read-out: % activity remaining
IRR = IRR (Homo sapiens, UniProt P14616); conditions: read-out: % activity remaining
Description: (§1) targets in radiometric filter binding assay using 33P-ATP at the MRC PPU International Centre for

JNK3 = JNK3 (Homo sapiens, UniProt P53779); conditions: read-out: % activity remaining
Description: as §1

MPSK1 = MPSK1 (Homo sapiens, UniProt O75716); conditions: read-out: % activity remaining
Description: as §1
(§2) Kinase activity s.d. pIC50 activity s.d. pIC50

ERK2 = ERK2 (Homo sapiens, UniProt P28482); conditions: read-out: % activity remaining
Description: as §1

RIPK2 = RIPK2 (Homo sapiens, UniProt O43353); conditions: read-out: % activity remaining
GCK = GCK (Homo sapiens, UniProt Q12851); conditions: read-out: % activity remaining
Description: as §1

JAK3 = biological target: T1, JAK3 (Homo sapiens, UniProt P52333); conditions: read-out: % activity remaining
T1 sequence (P52333 1-1124): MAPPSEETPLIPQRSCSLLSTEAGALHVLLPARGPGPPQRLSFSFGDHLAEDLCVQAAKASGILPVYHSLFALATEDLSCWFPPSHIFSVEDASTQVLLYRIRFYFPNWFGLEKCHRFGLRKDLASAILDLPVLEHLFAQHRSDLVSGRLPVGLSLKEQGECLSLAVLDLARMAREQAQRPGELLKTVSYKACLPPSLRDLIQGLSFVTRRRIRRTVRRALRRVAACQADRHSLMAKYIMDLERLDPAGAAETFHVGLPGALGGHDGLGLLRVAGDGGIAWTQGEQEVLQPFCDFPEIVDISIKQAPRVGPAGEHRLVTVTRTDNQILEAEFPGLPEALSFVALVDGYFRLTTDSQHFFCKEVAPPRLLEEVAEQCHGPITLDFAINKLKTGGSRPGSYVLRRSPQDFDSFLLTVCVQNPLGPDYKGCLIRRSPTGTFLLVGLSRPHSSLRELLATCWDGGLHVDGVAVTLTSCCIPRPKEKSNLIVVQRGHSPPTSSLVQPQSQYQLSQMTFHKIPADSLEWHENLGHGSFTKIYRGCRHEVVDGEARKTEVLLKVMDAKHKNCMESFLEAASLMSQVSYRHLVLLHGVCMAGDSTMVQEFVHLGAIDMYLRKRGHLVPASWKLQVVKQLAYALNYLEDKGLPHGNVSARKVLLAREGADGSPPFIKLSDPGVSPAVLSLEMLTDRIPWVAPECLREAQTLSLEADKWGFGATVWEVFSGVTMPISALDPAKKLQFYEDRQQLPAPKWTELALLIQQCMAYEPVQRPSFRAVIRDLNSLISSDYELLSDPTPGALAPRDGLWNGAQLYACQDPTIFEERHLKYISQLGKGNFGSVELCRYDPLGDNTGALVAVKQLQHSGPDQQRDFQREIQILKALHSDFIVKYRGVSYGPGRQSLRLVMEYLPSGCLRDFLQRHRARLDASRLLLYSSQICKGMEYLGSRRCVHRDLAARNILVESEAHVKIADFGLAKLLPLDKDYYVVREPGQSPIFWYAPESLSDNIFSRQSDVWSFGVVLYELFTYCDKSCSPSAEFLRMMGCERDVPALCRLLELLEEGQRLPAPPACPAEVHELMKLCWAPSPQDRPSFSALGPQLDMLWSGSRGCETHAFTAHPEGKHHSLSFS
Description: as §1

DYRK3 = DYRK3 (Homo sapiens, UniProt O43781); conditions: read-out: % activity remaining
p38a MAPK = p38a MAPK (Homo sapiens, UniProt Q16539); conditions: read-out: % activity remaining
PINK = PINK (Tribolium castaneum, UniProt D6WMX4); format: biochemical
PKCz = PKCz (Homo sapiens, UniProt Q05513); conditions: read-out: % activity remaining
IRAK4 = IRAK4 (Homo sapiens, UniProt Q9NWZ3); conditions: read-out: % activity remaining
Description: as §1

MSK1 = MSK1 (Homo sapiens, UniProt O75582); conditions: read-out: % activity remaining
Description: as §1, §2

CHK1 = CHK1 (Homo sapiens, UniProt O14757); conditions: read-out: % activity remaining
PAK6 = PAK6 (Homo sapiens, UniProt Q9NQU5); conditions: read-out: % activity remaining
Description: as §1

MST4 = MST4 (Homo sapiens, UniProt Q9P289); conditions: read-out: % activity remaining
Description: as §1, §2

EIF2AK3 = EIF2AK3 (Homo sapiens, UniProt Q9NZJ5); conditions: read-out: % activity remaining
CK1δ = CK1δ (Homo sapiens, UniProt P48730); conditions: read-out: % activity remaining
Description: as §1

PAK2 = PAK2 (Homo sapiens, UniProt Q13177); conditions: read-out: % activity remaining
Description: as §1

PIM1 = PIM1 (Homo sapiens, UniProt P11309); conditions: read-out: % activity remaining
Description: as §1

MARK2 = MARK2 (Homo sapiens, UniProt Q7KZI7); conditions: read-out: % activity remaining
Description: as §1

DAPK1 = DAPK1 (Homo sapiens, UniProt P53355); conditions: read-out: % activity remaining
Description: as §1

MARK3 = MARK3 (Homo sapiens, UniProt P27448); conditions: read-out: % activity remaining
Description: as §1

TTBK1 = TTBK1 (Homo sapiens, UniProt Q5TCY1); conditions: read-out: % activity remaining
Description: as §1

DYRK3, sequence (O43781 whole entry, species assumed): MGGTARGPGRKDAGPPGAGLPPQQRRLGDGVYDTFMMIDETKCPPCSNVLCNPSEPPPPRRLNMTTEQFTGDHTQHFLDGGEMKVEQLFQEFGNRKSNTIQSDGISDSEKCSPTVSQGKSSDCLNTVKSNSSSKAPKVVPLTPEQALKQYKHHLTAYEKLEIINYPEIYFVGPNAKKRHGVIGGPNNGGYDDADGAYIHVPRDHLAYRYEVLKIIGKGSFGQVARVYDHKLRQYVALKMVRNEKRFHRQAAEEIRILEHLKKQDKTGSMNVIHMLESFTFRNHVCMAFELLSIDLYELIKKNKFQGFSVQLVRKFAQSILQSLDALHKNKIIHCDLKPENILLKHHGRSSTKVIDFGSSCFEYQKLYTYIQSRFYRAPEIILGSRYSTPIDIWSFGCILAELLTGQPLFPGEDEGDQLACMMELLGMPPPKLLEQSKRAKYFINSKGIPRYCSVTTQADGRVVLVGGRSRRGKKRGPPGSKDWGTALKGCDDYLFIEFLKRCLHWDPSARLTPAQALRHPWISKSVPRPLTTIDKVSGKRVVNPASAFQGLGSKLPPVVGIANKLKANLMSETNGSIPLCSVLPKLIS
PAK2, sequence (Q13177 whole entry): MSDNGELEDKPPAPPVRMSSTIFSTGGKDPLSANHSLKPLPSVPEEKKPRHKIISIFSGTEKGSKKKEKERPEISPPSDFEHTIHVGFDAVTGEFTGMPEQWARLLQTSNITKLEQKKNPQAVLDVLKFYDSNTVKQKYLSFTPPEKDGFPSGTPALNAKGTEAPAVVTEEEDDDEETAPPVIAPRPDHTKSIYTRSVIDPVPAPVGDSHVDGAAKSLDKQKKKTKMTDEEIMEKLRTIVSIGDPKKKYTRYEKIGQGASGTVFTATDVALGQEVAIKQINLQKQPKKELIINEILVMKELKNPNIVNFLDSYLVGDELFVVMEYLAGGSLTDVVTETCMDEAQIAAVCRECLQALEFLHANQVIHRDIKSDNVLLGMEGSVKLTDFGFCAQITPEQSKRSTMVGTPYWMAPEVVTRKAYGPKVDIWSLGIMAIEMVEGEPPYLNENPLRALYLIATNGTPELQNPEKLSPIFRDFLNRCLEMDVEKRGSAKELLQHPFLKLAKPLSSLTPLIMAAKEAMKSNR
IRR, sequence (P14616 27-1297): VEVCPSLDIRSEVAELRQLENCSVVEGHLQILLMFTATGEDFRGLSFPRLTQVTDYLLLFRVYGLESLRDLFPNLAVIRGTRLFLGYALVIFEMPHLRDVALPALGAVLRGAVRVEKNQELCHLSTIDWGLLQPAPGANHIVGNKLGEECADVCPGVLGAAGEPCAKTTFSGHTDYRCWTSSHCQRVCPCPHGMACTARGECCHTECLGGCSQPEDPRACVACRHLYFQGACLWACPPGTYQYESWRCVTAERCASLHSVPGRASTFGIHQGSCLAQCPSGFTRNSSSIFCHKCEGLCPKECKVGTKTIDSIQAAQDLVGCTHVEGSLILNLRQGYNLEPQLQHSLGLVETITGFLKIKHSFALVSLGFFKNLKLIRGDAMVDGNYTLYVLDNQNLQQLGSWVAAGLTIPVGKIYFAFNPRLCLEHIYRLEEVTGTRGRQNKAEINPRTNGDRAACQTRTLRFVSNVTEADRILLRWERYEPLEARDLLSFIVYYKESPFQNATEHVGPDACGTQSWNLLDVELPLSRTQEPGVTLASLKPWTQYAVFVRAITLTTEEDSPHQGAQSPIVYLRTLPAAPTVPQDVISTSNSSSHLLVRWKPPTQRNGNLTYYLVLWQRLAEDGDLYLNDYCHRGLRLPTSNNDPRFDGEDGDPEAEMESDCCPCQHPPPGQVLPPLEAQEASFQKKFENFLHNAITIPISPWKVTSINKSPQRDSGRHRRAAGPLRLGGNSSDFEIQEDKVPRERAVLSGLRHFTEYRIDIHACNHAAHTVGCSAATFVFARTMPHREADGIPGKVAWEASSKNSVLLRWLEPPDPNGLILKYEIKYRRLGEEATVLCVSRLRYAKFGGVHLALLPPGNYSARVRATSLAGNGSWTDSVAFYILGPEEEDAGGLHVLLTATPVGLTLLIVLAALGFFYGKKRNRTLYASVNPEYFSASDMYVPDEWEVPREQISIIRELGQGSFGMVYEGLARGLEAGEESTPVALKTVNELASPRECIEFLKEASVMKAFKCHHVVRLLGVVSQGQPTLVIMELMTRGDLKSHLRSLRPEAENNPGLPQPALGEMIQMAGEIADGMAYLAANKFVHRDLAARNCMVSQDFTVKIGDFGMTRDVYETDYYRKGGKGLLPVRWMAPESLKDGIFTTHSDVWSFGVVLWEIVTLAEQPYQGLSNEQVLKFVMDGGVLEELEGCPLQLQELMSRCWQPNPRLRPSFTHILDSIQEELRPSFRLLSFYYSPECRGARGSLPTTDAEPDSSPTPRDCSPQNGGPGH
RIPK2, sequence (O43353 whole entry): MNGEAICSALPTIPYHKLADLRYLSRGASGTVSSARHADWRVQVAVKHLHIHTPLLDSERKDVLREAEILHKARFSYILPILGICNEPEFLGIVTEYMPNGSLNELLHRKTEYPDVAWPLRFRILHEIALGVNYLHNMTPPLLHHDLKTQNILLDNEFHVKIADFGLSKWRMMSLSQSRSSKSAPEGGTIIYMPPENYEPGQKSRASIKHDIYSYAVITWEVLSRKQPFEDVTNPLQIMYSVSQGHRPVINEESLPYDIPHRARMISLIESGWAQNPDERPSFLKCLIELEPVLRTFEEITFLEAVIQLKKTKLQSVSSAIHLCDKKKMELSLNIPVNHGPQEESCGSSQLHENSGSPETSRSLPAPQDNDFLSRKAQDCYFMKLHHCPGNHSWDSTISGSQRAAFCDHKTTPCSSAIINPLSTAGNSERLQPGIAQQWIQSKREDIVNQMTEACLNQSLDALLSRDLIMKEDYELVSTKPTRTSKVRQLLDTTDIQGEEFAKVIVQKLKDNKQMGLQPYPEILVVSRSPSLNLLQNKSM
CK1δ, sequence (P48730 whole entry): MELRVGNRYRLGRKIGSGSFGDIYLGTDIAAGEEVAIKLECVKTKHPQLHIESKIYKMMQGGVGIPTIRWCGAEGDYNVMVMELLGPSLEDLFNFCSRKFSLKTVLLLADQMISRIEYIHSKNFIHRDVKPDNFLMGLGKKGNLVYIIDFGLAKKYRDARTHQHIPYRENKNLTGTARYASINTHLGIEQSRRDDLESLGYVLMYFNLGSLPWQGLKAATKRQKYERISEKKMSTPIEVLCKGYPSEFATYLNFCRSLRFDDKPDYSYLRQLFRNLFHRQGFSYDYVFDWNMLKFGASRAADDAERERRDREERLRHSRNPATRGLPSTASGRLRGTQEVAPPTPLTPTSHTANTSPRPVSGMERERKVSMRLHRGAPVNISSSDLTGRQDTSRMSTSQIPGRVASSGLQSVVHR
IRAK4, sequence (Q9NWZ3 whole entry): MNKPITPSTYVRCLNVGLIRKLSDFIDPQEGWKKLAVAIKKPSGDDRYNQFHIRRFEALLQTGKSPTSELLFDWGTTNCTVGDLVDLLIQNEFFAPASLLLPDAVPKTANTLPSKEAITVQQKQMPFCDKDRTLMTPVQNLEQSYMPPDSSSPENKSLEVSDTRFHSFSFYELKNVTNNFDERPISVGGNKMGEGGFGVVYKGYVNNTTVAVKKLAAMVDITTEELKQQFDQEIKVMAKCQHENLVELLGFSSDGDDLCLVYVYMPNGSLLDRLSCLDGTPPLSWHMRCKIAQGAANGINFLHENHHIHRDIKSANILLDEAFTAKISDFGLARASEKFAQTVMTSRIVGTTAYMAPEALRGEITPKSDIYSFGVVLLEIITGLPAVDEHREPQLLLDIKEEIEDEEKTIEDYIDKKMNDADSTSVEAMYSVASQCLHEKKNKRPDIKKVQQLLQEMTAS
PKCz, sequence (Q05513 whole entry): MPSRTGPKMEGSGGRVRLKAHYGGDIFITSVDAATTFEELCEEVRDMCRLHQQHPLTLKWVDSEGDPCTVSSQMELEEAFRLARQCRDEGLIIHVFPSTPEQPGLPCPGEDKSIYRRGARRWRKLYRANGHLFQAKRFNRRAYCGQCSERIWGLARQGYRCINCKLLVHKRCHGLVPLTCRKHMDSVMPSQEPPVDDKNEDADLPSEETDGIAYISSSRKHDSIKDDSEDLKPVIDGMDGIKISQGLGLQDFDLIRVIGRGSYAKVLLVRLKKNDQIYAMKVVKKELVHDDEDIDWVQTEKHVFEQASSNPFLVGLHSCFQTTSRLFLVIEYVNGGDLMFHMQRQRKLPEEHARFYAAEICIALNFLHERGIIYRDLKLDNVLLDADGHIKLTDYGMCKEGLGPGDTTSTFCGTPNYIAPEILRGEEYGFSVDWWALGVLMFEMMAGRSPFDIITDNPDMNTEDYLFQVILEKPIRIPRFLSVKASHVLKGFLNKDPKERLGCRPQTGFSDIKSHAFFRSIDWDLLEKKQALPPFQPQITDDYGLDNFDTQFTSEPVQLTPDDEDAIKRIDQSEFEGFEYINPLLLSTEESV
p38a MAPK, sequence (Q16539 whole entry): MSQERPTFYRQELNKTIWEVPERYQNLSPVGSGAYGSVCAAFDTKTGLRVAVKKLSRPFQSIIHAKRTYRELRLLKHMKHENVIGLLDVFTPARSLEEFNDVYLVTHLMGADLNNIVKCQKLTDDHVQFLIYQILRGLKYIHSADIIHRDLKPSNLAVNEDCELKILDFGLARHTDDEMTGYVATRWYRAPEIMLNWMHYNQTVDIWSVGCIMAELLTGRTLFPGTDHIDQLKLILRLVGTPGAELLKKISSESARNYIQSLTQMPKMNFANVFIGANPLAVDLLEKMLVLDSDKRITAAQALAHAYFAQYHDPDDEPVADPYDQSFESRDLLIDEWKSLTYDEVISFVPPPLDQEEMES

| Structure (SMILES) | remaining activity at 1 µM (Src) | remaining activity at 1 µM (IRR) | remaining activity at 1 µM (JNK3) | remaining activity at 1 µM (MPSK1) | remaining activity at 1 µM (ERK2) | remaining activity at 1 µM (RIPK2) | remaining activity at 1 µM (GCK) | remaining activity at 1 µM (JAK3) | remaining activity at 1 µM (DYRK3) | remaining activity at 1 µM (p38a MAPK) | remaining activity at 1 µM (PINK) | remaining activity at 1 µM (PKCz) | remaining activity at 1 µM (IRAK4) | remaining activity at 1 µM (MSK1) | remaining activity at 1 µM (CHK1) | remaining activity at 1 µM (PAK6) | remaining activity at 1 µM (MST4) | remaining activity at 1 µM (EIF2AK3) | remaining activity at 1 µM (CK1δ) | remaining activity at 1 µM (PAK2) | further results |
| --- | --- | --- | --- | --- | --- | --- | --- | --- | --- | --- | --- | --- | --- | --- | --- | --- | --- | --- | --- | --- | --- |
| CC(C)N1CCN(c2ccc(Nc3nc(OCC4CC4)c4cc[nH]c4n3)cc2)CC1 [Compound 23] | 15% | 48% | 58% | 77% | 93% | 77% | 34% | 23% | 61% | 109% | 126% | 123% | 67% | 69% | 22% | 56% | 111% | 39% | 24% | 95% | remaining activity at 1 µM (PIM1): 94%; remaining activity at 1 µM (MARK2): 23%; remaining activity at 1 µM (DAPK1): 18%; remaining activity at 1 µM (MARK3): 6%; remaining activity at 1 µM (TTBK1): 96% |
| CC(C)N1CCN(c2ccc(Nc3nc(OCC4CCOC(C)(C)C4)c4nc[nH]c4n3)cc2)CC1 (centres unmarked) [Compound 20] | 25% | 83% | 51% | 97% | 98% | 48% | 61% | 22% | 103% | 101% | 78% | 106% | 100% | 80% | 55% | 89% | 55% | 115% | 101% | 90% | remaining activity at 1 µM (PIM1): 85%; remaining activity at 1 µM (MARK2): 44%; remaining activity at 1 µM (DAPK1): 69%; remaining activity at 1 µM (MARK3): 46%; remaining activity at 1 µM (TTBK1): 96% |
